# Tested on: lung gene expression
# Experiment: RNA sequencing of lung tissue (BLM/EL244 vs BLM)
# Format: in vivo, mouse
# Conditions: lung tissue of BLM-treated mice, BLM/EL244 vs BLM
# Procedure: RNA quality was assessed using an Agilent TapeStation 4150 with the High Sensitivity […] ScreenTape (Agilent), according to the manufacturer’s protocols. For library preparation, the QuantSeq 3’mRNA-Seq Library Prep Kit (Lexogen) was used according to manufacturer’s instructions. Briefly, 500 ng of RNA from each sample was used for first-strand synthesis, followed by RNA template removal, and second-strand synthesis initiated by random primers. In-line barcodes were introduced at this step, and this was followed by magnetic bead-based purification. The resulting libraries were amplified for 15 cycles and re-purified, with quantity and quality assessed on a Qubit 4 Fluorometer with the Invitrogen Qubit dsDNA HS Assay and an Agilent Tapestation 4150 with the High Sensitivity D1000 assay kit, respectively. The quantified libraries were pooled equimolarly; 50ng of total library mix was used for Adapter Conversion PCR Amplification using the Universal Library Conversion Kit (App-A), Version: V1.0 (MGI Tech Co., Ltd.), according to the manufacturer’s instructions.
# The quantity and quality of the purified adapter conversion PCR (AC-PCR) product were evaluated on a Qubit 4 Fluorometer with the Invitrogen Qubit dsDNA HS Assay and on an Agilent Tapestation 4150 with the High Sensitivity D1000 assay kit, respectively. This was followed by DNA denaturation, Single-Strand Circularisation, Enzymatic Digestion, Enzymatic Digestion Product Cleanup and Quality Control steps on 1 pmol of AC-PCR product, according to the Universal Library Conversion Kit (App-A) User Manual (Version: A3).
# Finally, 60 fmol of ssCirDNA were used for DNB preparation and sequencing on a DNBSEQ-G400 platform at the BSRC Alexander Fleming Genomics Facility, using a G400 App-A FCS SE100 High-throughput Sequencing Set (MGI Tech Co., Ltd.), according to the manufacturer’s instructions.
# Alignment of the FASTQ files was performed against the mouse genome build mm10 using a custom Bash script.[143] Read counting on the 3′ UTRs and differential expression analysis were conducted using the metaseqR2 bioconductor package.[144] Genes corresponding to the following biotypes were excluded: polymorphic_pseudogene, processed_transcript, pseudogene, IG_V_pseudogene, misc_RNA, IG_C_gene, IG_J_gene, IG_D_gene, IG_LV_gene, TR_V_gene, TR_V_pseudogene, TEC, and processed_pseudogene. Gene counts were normalized with DESEQ[145] through metaseqR2. Genes with more than 10 counts in at least 50% of the samples were kept for further processing. For differential expression analysis, the PANDORA algorithm[146] was used to estimate a meta p-value integrating the results from the DESEQ, DESEQ2,[147] edgeR,[148] limma,[149] NBPSeq,[150] and NOISeq[151] algorithms. All additional parameters were set to default values.
# Pathway enrichment analysis was performed for the Gene Ontology Biological process (BP) and Molecular Function (MF) terms through GeneCodis 4.[152] The volcano plots, scatterplots, Venn diagrams, and dot plots were generated using the ggplot2 Bioconductor package.
structure (smiles),measurement,value
"O=C1NC(=O)C(Cc2ccc(OCCC3CCN(C(=O)OCc4cc(Cl)cc(Cl)c4)CC3)cc2)S1 (centres unmarked) [EL244, 3,5-dichlorobenzyl 4-(2-(4-((2,4-dioxothiazolidin-5-yl)methyl)phenoxy)ethyl)piperidine-1-carboxylate]",Ces2g log2 nFC,0.83
same,Ces2g nFC,1.78
same,Cfap43 log2 nFC,0.88
same,Cfap43 nFC,1.84
same,Cfap100 log2 nFC,0.89
same,Cfap100 nFC,1.85
same,Cfap206 log2 nFC,0.77
same,Cfap206 nFC,1.70
same,Cftr log2 nFC,0.96
same,Cftr nFC,1.95
same,Cldn5 log2 nFC,0.97
same,Cldn5 nFC,1.96
same,Cpm log2 nFC,0.68
same,Cpm nFC,1.60
same,Crebl2 log2 nFC,0.79
same,Crebl2 nFC,1.73
same,Crem log2 nFC,0.68
same,Crem nFC,1.60
same,Crispld2 log2 nFC,0.80
same,Crispld2 nFC,1.74
same,Cry2 log2 nFC,0.70
same,Cry2 nFC,1.62
same,Csrnp1 log2 nFC,0.83
same,Csrnp1 nFC,1.78
same,Ctla2a log2 nFC,0.72
same,Ctla2a nFC,1.65
same,Ctla2b log2 nFC,0.96
same,Ctla2b nFC,1.94
same,Cyp2d22 log2 nFC,0.97
same,Cyp2d22 nFC,1.97
same,Cyp2f2 log2 nFC,0.79
same,Cyp2f2 nFC,1.72
same,Dgkh log2 nFC,0.84
same,Dgkh nFC,1.79
same,Dnali1 log2 nFC,0.73
same,Dnali1 nFC,1.66
same,Dok4 log2 nFC,0.74
same,Dok4 nFC,1.67
same,Dpep1 log2 nFC,0.71
same,Dpep1 nFC,1.63
same,Dusp1 log2 nFC,0.86
same,Dusp1 nFC,1.82
same,Ednrb log2 nFC,0.97
same,Ednrb nFC,1.96
same,Elmod1 log2 nFC,0.89
same,Elmod1 nFC,1.86
same,Eng log2 nFC,0.81
same,Eng nFC,1.76
same,Errfi1 log2 nFC,0.95
same,Errfi1 nFC,1.93
same,Fabp3 log2 nFC,0.98
same,Fabp3 nFC,1.97
same,Fmo1 log2 nFC,0.86
same,Fmo1 nFC,1.81
same,Fmo2 log2 nFC,1.00
same,Fmo2 nFC,2.00
same,Fos log2 nFC,1.02
same,Fos nFC,2.03
same,Fxyd1 log2 nFC,0.80
same,Fxyd1 nFC,1.75
same,Fzd4 log2 nFC,0.69
same,Fzd4 nFC,1.61
same,Galnt15 log2 nFC,0.89
same,Galnt15 nFC,1.85
same,Gm26236 log2 nFC,1.03
same,Gm26236 nFC,2.04
same,Gm47291 log2 nFC,0.98
same,Gm47291 nFC,1.98
same,Gm49391 log2 nFC,0.96
same,Gm49391 nFC,1.95
same,Gnao1 log2 nFC,0.85
same,Gnao1 nFC,1.80
same,Gpm6a log2 nFC,0.83
same,Gpm6a nFC,1.78
same,Gpr155 log2 nFC,0.76
same,Gpr155 nFC,1.69
same,Gprasp1 log2 nFC,0.72
same,Gprasp1 nFC,1.64
same,Gpt log2 nFC,0.73
same,Gpt nFC,1.66
same,Gsn log2 nFC,1.06
same,Gsn nFC,2.08
same,Gstm1 log2 nFC,0.75
same,Gstm1 nFC,1.68
same,Hecw2 log2 nFC,0.81
same,Hecw2 nFC,1.75
same,Hlf log2 nFC,0.89
same,Hlf nFC,1.86
same,Igf1r log2 nFC,0.70
same,Igf1r nFC,1.63
same,Il6ra log2 nFC,0.84
same,Il6ra nFC,1.79
same,Iqca log2 nFC,0.87
same,Iqca nFC,1.83
same,Itga8 log2 nFC,0.88
same,Itga8 nFC,1.85
same,Itih4 log2 nFC,0.88
same,Itih4 nFC,1.84
same,Iyd log2 nFC,1.04
same,Iyd nFC,2.05
same,Jdp2 log2 nFC,0.71
same,Jdp2 nFC,1.64
same,Klf3 log2 nFC,0.69
same,Klf3 nFC,1.62
same,Klf4 log2 nFC,0.72
same,Klf4 nFC,1.64
same,Klf9 log2 nFC,0.85
same,Klf9 nFC,1.80
same,Klrd1 log2 nFC,0.95
same,Klrd1 nFC,1.93
same,Kndc1 log2 nFC,1.05
same,Kndc1 nFC,2.07
same,Krt23 log2 nFC,0.69
same,Krt23 nFC,1.61
same,Lncpint log2 nFC,1.06
same,Lncpint nFC,2.08
same,Lpin1 log2 nFC,0.80
same,Lpin1 nFC,1.75
same,Lrrc74b log2 nFC,1.02
same,Lrrc74b nFC,2.03
same,Ltbp4 log2 nFC,0.81
same,Ltbp4 nFC,1.76
same,Lyve1 log2 nFC,0.96
same,Lyve1 nFC,1.94
same,Map3k6 log2 nFC,0.95
same,Map3k6 nFC,1.93
same,Mapt log2 nFC,0.89
same,Mapt nFC,1.85
same,Mcf2l log2 nFC,0.95
same,Mcf2l nFC,1.93
same,Mettl7a1 log2 nFC,0.80
same,Mettl7a1 nFC,1.75
same,Mir29c log2 nFC,0.89
same,Mir29c nFC,1.85
same,Mir1668 log2 nFC,0.75
same,Mir1668 nFC,1.69
same,Mir6899 log2 nFC,0.84
same,Mir6899 nFC,1.80
same,Mtcl1 log2 nFC,0.73
same,Mtcl1 nFC,1.66
same,Ndrg2 log2 nFC,0.88
same,Ndrg2 nFC,1.84
same,Nek5 log2 nFC,0.81
same,Nek5 nFC,1.76
same,Nova2 log2 nFC,0.90
same,Nova2 nFC,1.86
same,Nr1d1 log2 nFC,0.84
same,Nr1d1 nFC,1.79
same,Nrgn log2 nFC,1.04
same,Nrgn nFC,2.05
same,Nrxn2 log2 nFC,0.88
same,Nrxn2 nFC,1.84
same,Ogn log2 nFC,0.86
same,Ogn nFC,1.82
same,Osgin1 log2 nFC,0.74
same,Osgin1 nFC,1.68
same,Pcolce2 log2 nFC,0.98
same,Pcolce2 nFC,1.97
same,Pcp4l1 log2 nFC,0.75
same,Pcp4l1 nFC,1.68
same,Phactr1 log2 nFC,0.74
same,Phactr1 nFC,1.67
same,Phf1 log2 nFC,0.75
same,Phf1 nFC,1.68
same,Pla2g1b log2 nFC,0.79
same,Pla2g1b nFC,1.72
same,Plxna2 log2 nFC,0.78
same,Plxna2 nFC,1.72
same,Ppargc1a log2 nFC,0.86
same,Ppargc1a nFC,1.82
same,Ppl log2 nFC,0.87
same,Ppl nFC,1.83
same,Prob1 log2 nFC,0.76
same,Prob1 nFC,1.70
same,Ptgfr log2 nFC,0.93
same,Ptgfr nFC,1.90
same,Pxdc1 log2 nFC,0.83
same,Pxdc1 nFC,1.78
same,Rapgef5 log2 nFC,0.88
same,Rapgef5 nFC,1.84
same,Rara log2 nFC,0.73
same,Rara nFC,1.66
same,Rgs9 log2 nFC,1.01
same,Rgs9 nFC,2.02
same,Rora log2 nFC,0.80
same,Rora nFC,1.74
same,S1pr4 log2 nFC,0.94
same,S1pr4 nFC,1.91
same,Scn3a log2 nFC,0.75
same,Scn3a nFC,1.68
same,Scube2 log2 nFC,0.74
same,Scube2 nFC,1.68
same,Sec14l3 log2 nFC,0.69
same,Sec14l3 nFC,1.62
same,Sec14l4 log2 nFC,0.77
same,Sec14l4 nFC,1.70
same,Sell log2 nFC,1.03
same,Sell nFC,2.04
same,Sema3g log2 nFC,0.78
same,Sema3g nFC,1.72
same,Sftpa1 log2 nFC,0.70
same,Sftpa1 nFC,1.62
same,Sgip1 log2 nFC,0.90
same,Sgip1 nFC,1.87
same,Sgms1 log2 nFC,0.71
same,Sgms1 nFC,1.63
same,Slc2a4rg-ps log2 nFC,0.85
same,Slc2a4rg-ps nFC,1.80
same,Slc7a10 log2 nFC,0.97
same,Slc7a10 nFC,1.96
same,Slc16a11 log2 nFC,0.79
same,Slc16a11 nFC,1.73
same,Slc43a3 log2 nFC,0.73
same,Slc43a3 nFC,1.66
same,Slit3 log2 nFC,1.02
same,Slit3 nFC,2.03
same,Snora21 log2 nFC,0.75
same,Snora21 nFC,1.68
same,Sntb1 log2 nFC,0.72
same,Sntb1 nFC,1.64
same,Sorbs1 log2 nFC,0.70
same,Sorbs1 nFC,1.62
same,Sorbs3 log2 nFC,0.80
same,Sorbs3 nFC,1.74
same,Srcin1 log2 nFC,0.91
same,Srcin1 nFC,1.87
same,Stard8 log2 nFC,0.69
same,Stard8 nFC,1.61
same,Syne1 log2 nFC,0.70
same,Syne1 nFC,1.62
